# Values quoted from earlier work as cited in US20050008712A1, “Compositions incorporating high-caffeine green tea extract and related methods for promoting healthy body weight” (priority 2003, published 2005).
# Details: rats
structure (smiles),measurement,setting,value
"O=C(O[C@@H]1Cc2c(O)cc(O)cc2O[C@@H]1c1cc(O)c(O)c(O)c1)c1cc(O)c(O)c(O)c1 [EGCG, (−)-epigallo-catechin-3-gallate]",loss of body weight,after daily injections for a week,20%
same,blood cholesterol,injected,significantly reduces
same,blood triglycerides,injected,significantly reduces
same,body weight,injected,significantly reduces
same,food intake,injected,significantly reduces
